Literature values, collected in the CATMoS acute toxicity set (Mansouri et al. 2021).
Several values for one entry are separate records, joined by “and”; a condition that tells them apart may be missing. Equal entries are not always repeated.

test: rat acute oral toxicity; conditions: in vivo

SMILES	LD50
COc1ccc2c(c1)c(CC(=O)Oc1cccc(C)c1)c(C)n2C(=O)c1ccc(Cl)cc1	98 mg/kg
C1CN1P1(N2CC2)=NP(N2CC2)(N2CC2)=NP(N2CC2)(N2CC2)=N1	98 mg/kg
C=CCCCCCCCCC(=O)OC	1560 mg/kg
Nc1ccc(/N=N/c2ccc(-c3ccc(/N=N/c4c(S(=O)(=O)O)cc5cc(S(=O)(=O)O)c(/N=N/c6ccccc6)c(O)c5c4N)cc3)cc2)c(N)c1	7600 mg/kg
COc1ccc(N)c(OC)c1	464 mg/kg
CNS(=O)(=O)c1cc(Cl)c(Cl)cc1Cl	5100 mg/kg
CC1(C)CC1CC1C(=O)N(c2ccccc2)N(c2ccccc2)C1=O (configuration not stated)	800 mg/kg
CCCCC(CC)COC(=O)COc1cc(Cl)c(Cl)cc1Cl (configuration not stated)	500 mg/kg
CN(C)c1c(Cl)c(Cl)c(Cl)c2nc(C(F)(F)F)[nH]c12	22 mg/kg
COc1cc2c(cc1OC)-c1c(OC)c(OC)cc3c1C(C2)N(C)CC3 (configuration not stated)	545 mg/kg
O=C(O)CCC(=O)OCC1COC(C(Cl)(Cl)Cl)O1 (configuration not stated)	3400 mg/kg
CCCCCCOCCCCCC	30900 mg/kg
CC1N(c2ccccc2)C(=O)c2ccccc2N1C(=O)CN1CCOCC1 (configuration not stated)	1710 mg/kg
COc1cc([C@@H]2c3cc4c(cc3[C@H](O[C@@H]3O[C@@H]5COC(c6ccccc6)O[C@H]5[C@H](O)[C@H]3O)[C@H]3COC(=O)[C@H]23)OCO4)cc(OC)c1OC (some centres not stated)	823 mg/kg
CCCCC(CC)COP(OCC(CC)CCCC)OCC(CC)CCCC (configuration not stated)	6200 mg/kg
C/N=N/Nc1ccc([N+](=O)[O-])cc1	468 mg/kg
CC(O)CN(CC(C)O)c1nc(Nc2ccc(C=Cc3ccc(Nc4nc(Nc5cc(S(=O)(=O)O)ccc5S(=O)(=O)O)nc(N(CC(C)O)CC(C)O)n4)cc3S(=O)(=O)O)c(S(=O)(=O)O)c2)nc(Nc2cc(S(=O)(=O)O)ccc2S(=O)(=O)O)n1 (configuration not stated)	12100 mg/kg
C[N+]1(CCC(O)(c2ccccc2)C2CCCCC2)CCCC1 (configuration not stated)	984 mg/kg and 985 mg/kg
CC[N+]1(CC)CCC(=C(c2ccccc2)c2ccccc2)C1C (configuration not stated)	1090 mg/kg
CCCCC(=O)c1ccc(N)cc1	84 mg/kg
CC[N+](CC)(CC)Cc1ccc(C(C)C(C)c2ccccc2)cc1 (configuration not stated)	2180 mg/kg
C=CCOC(=O)CCC1CCCCC1	585 mg/kg
COc1ccc2c(c1)[C@@]13CCCC[C@H]1[C@@H](C2)N(C)CC3	242 mg/kg
O=C(O)C(Cl)(Cl)CCl	2460 mg/kg
CC(=O)Nc1ccccc1	800 mg/kg

SMILES	LD50
C=C(C#N)C(=O)OC	1600 mg/kg
O=Nc1ccc(N=O)cc1	1020 mg/kg
COC1CC=C2CCN3CCC4=C(CC(=O)OC4)C23C1 (configuration not stated)	320 mg/kg
ClCC(Cl)=C(Cl)Cl	350 mg/kg
COC(=O)Nc1nc2cc(C(=O)c3ccccc3)ccc2[nH]1	714 mg/kg
O=[N+]([O-])c1ccc(O)c(CNCCCl)c1	25 mg/kg
O=C(O)C(F)(F)C(F)(F)C(F)(F)C(F)(F)C(F)(F)C(F)(F)C(F)(F)F	430 mg/kg
CCN(CC)CCOc1ccc2nc(N(C)C)sc2c1	880 mg/kg
NC(Cc1ccc(Oc2ccc(N(CCCl)CCCl)cc2)cc1)C(=O)O (configuration not stated)	620 mg/kg
CC[C@@H](COC(=O)c1cc(OC)c(OC)c(OC)c1)N(C)CCN(C)[C@@H](CC)COC(=O)c1cc(OC)c(OC)c(OC)c1	1500 mg/kg
CCOCCOCC	4390 mg/kg
CCOC(=O)N(C)SN(C)C(=O)O/N=C(\C)SC	226 mg/kg
Nc1ccc2c(S(=O)(=O)O)cccc2c1S(=O)(=O)O	5430 mg/kg
CNC(=O)ON=CC1(C)SC(C)C(C)S1 (configuration not stated)	2.5 mg/kg
OCCN1CCN(CCC=C2c3ccccc3Sc3ccc(C(F)(F)F)cc32)CC1	791 mg/kg
Cc1cc(O)c(C(C)(C)C)cc1Sc1cc(C(C)(C)C)c(O)cc1C	2340 mg/kg
CC(=O)NCCO	27000 mg/kg
CCCCCCCCCCCCCCCCCC1=NCCN1CCO	3800 mg/kg
CC(C(c1ccc(Cl)cc1)c1ccc(Cl)cc1)[N+](=O)[O-] (configuration not stated)	750 mg/kg
Cc1ccc(S(=O)(=O)OCCCl)cc1	498 mg/kg
CNC(=O)Oc1cc(C)c(SC)c(C)c1	20 mg/kg
CC=CC=CC(=O)NO	2460 mg/kg
O=C1CN2CCOC2(c2ccccc2Cl)c2cc(Cl)ccc2N1 (configuration not stated)	1780 mg/kg
NS(=O)(=O)c1cc2c(cc1Cl)N=CNS2(=O)=O	10000 mg/kg
O=C1C=CC(=NCl)C=C1	100 mg/kg

SMILES	LD50
c1ccc(P(C2CCCCC2)C2CCCCC2)cc1	820 mg/kg
Cc1cc(C(C)(C)C)cc(C)c1CC1=NCCN1	230 mg/kg
COC(=O)Nc1nc2ccc(C(=O)c3ccc(F)cc3)cc2[nH]1	2560 mg/kg
CC(=O)CCc1ccccc1	3200 mg/kg
CC[C@@]1(O)C(=O)OCc2c1cc1n(c2=O)Cc2cc3ccccc3nc2-1	153 mg/kg
CC1COC(c2ccccc2)O1 (configuration not stated)	3000 mg/kg
O=C(O)CCCOc1ccc(Cl)cc1Cl	700 mg/kg
CCN1CN(CC)CN(CC)C1	316 mg/kg
CCNc1cccc(C)c1	580 mg/kg
CC(C)=CC1C(C(=O)OCc2cc3c(cc2Cl)OCO3)C1(C)C (configuration not stated)	15000 mg/kg
CNC(=O)Oc1ccccc1C1OCC(C)(C)O1 (configuration not stated)	110 mg/kg
Clc1nc(Cl)c(Cl)[nH]1	11 mg/kg
O=[N+]([O-])c1ccccc1-c1ccccc1	1230 mg/kg
CCCOc1ccc(C(CN(C)C)C(C)CC)cc1Cl (configuration not stated)	741 mg/kg
CCOP(=O)(OCC)OC(=C(Cl)Cl)c1ccc(Cl)cc1Cl	30.2 mg/kg
C=C(C)C(=O)OCC	14800 mg/kg
Nc1ccc([N+](=O)[O-])c(Cl)n1	1780 mg/kg
Cc1cc(C(=O)c2ccccc2)ccc1N=Cc1cccc(OCCC(C)C)c1	2100 mg/kg
CNC(=O)Oc1cccc(C(C)C)c1Cl	35 mg/kg
C=CCC#N	115 mg/kg
FC(F)(F)C(=NOCC1OCCO1)c1ccc(Cl)cc1	669 mg/kg
N#CCc1ccccc1	270 mg/kg
CCO[Si](CCCC#N)(OCC)OCC	4920 mg/kg
c1cc(OCC2CO2)cc(OCC2CO2)c1 (configuration not stated)	2570 mg/kg
CNC(=O)ON=C1SC(=NC(C)C)SC1(C)C	8.9 mg/kg

SMILES	LD50
CC(C)=C[C@@H]1[C@@H](C(=O)OCc2coc(Cc3ccccc3)c2)C1(C)C	1240 mg/kg
Nn1cnnc1	4800 mg/kg and 13600 mg/kg
O=C(Cl)c1ccccc1C(F)(F)F	8200 mg/kg
O=C(Cl)c1cccc(S(=O)(=O)Cl)c1	1780 mg/kg
CCCCNCCCCCCN	536 mg/kg
CCCCC(CC)COC(=O)c1ccccc1C(=O)OCc1ccccc1 (configuration not stated)	60000 mg/kg
CC(=O)CCC=C(C)C	3500 mg/kg
CC(C)COC(=O)C(C)Oc1ccc(Oc2ccc(Cl)cc2)cc1 (configuration not stated)	723 mg/kg
O=C1CC[C@@]2(O)[C@H]3Cc4ccc(O)c5c4[C@@]2(CCN3CC2CC2)[C@H]1O5	1450 mg/kg
CC(CCl)N(C)C (configuration not stated)	166 mg/kg
COP(=S)(OC)SCCSc1ccc(Cl)cc1	100 mg/kg
N#C[SeH]	10 mg/kg
Oc1ccc(N=Cc2ccccc2)cc1	3500 mg/kg
CCC(CC)C(=O)OCC(Br)(Br)Br	4000 mg/kg
CCCOC=O	3980 mg/kg
CCOC(N)=O	1810 mg/kg
Cc1cc(C2(c3ccc(O)c(C)c3)C(=O)Nc3ccccc32)ccc1O	520 mg/kg
CC1(C)CC(=O)C(N)C(C)(C)N1 (configuration not stated)	920 mg/kg
OC1CC2CC1C1CC=CC21 (configuration not stated)	3200 mg/kg
CC(C)=CCC(CCN1CCOCC1)(C(N)=O)c1cccc2ccccc12 (configuration not stated)	177 mg/kg
CCCCNC(=N)NC(=N)N	320 mg/kg
CN(C)c1ccccc1CS(=O)c1nc2ccccc2[nH]1 (configuration not stated)	1300 mg/kg
ClCC(Br)CBr (configuration not stated)	170 mg/kg
CCCC(CCC)C(N)=O	890 mg/kg
COc1cc(S(C)=O)ccc1-c1nc2ncccc2[nH]1 (configuration not stated)	315 mg/kg

SMILES	LD50
Fc1ccc2nc(C(F)(F)F)[nH]c2c1	16.6 mg/kg
CC[N+]1(C)CCCC(OC(=O)C(O)(c2ccccc2)c2ccccc2)C1 (configuration not stated)	916 mg/kg and 850 mg/kg
CCOC(=O)Nc1ccc(NCc2ccc(F)cc2)nc1N	1660 mg/kg
CCCCOC(=O)c1ccccc1Nc1cccc(C(F)(F)F)c1	510 mg/kg
C#CCOC(C)=O	250 mg/kg
O=[N+]([O-])c1ccc(Oc2c(F)cc(Cl)cc2Cl)cc1	2890 mg/kg
CCC1(c2ccccc2)CCNC1=O (configuration not stated)	990 mg/kg
CC(=O)C(C)=Cc1ccccc1	4100 mg/kg
OCCOCCN(CCOCCO)CCN(CCOCCO)CCOCCO	9900 mg/kg
COCCl	500 mg/kg
Nc1ccc(-c2ccc(-n3nc4ccc5c(S(=O)(=O)O)cc(S(=O)(=O)O)cc5c4n3)cc2)cc1S(=O)(=O)O	9500 mg/kg
CCCCC(CC)CCl (configuration not stated)	7340 mg/kg
NC(=O)c1cc(C(=O)CBr)ccc1O	800 mg/kg
CCOc1cc2c3c([nH]c2cc1N)CCCC3	810 mg/kg
C#CCCCC#C	2300 mg/kg
CC(C)CCOC=O	9840 mg/kg
FC(F)(F)c1nnc2c3ccccc3ccn12	660 mg/kg
COCCOC(=O)CC#N	4300 mg/kg
O=[N+]([O-])c1cc([N+](=O)[O-])c(Nc2c(Br)cc(Br)cc2Br)c(C(F)(F)F)c1	4.43 mg/kg
CC(O)=S	200 mg/kg
CCOC(=O)CN(C)N=O	4000 mg/kg
CCNc1nc(NC(C)C(C)C)nc(SC)n1 (configuration not stated)	3000 mg/kg
CCCC(=NOCC)C1=C(O)CC(C2CCCSC2)CC1=O (configuration not stated)	3940 mg/kg
Nc1ncnc(Nc2cccc(Cl)c2)n1	400 mg/kg
CC=Cc1ccc(OCC)c(O)c1	2400 mg/kg

SMILES	LD50
COc1ccc(C=O)cc1	1510 mg/kg
CN(C)CCNN	2110 mg/kg
CCOC(=O)C(CCc1ccccc1)NC(C)C(=O)N1C(C(=O)O)CC2CCCCC21 (configuration not stated)	2500 mg/kg
CCCCCCOC(C[n+]1ccccc1)c1ccc(C2CCCCC2)cc1 (configuration not stated)	250 mg/kg
CN(C)CCOc1ccnc(N)n1	1500 mg/kg
CCCCCCC1=CC(=O)CC(c2ccc3c(c2)OCO3)C1 (configuration not stated)	5200 mg/kg
CC(=O)N(/C(=N/c1cccnc1)NC#N)C(C)(C)C	615 mg/kg
Cc1ccc(N2C(=O)C=CC2=O)cc1N1C(=O)C=CC1=O	2400 mg/kg
CCC(C)NC(=S)C(=S)NC(C)CC (configuration not stated)	6 mg/kg
CCOP(=O)(OCC)SCSP(=O)(OCC)OCC	12.8 mg/kg
CCN1CN1CC (configuration not stated)	4000 mg/kg
CCO[Si](CC)(OCC)OCC	14000 mg/kg
CCOC(CC(OCC)OCC)OCC	1610 mg/kg
COP(=S)(OC)SCC(N)=O	925 mg/kg
CCOCCOC(=O)C(C)Oc1ccc(Oc2ncc(C(F)(F)F)cc2Cl)cc1 (configuration not stated)	518 mg/kg
CCN(CC)CCOC1(c2ccc(Cl)cc2)CCCCC1	500 mg/kg
O=c1c(O)c(-c2ccc(O)c(O)c2)oc2cc(O)cc(O)c12	161 mg/kg
O=C(Nc1ccc(Br)cc1)c1cc(Br)cc(Br)c1O	410 mg/kg
CCCCC(CC)COCC1CO1 (configuration not stated)	7800 mg/kg
C=C(C)OC(C)=O	3000 mg/kg
Cc1cc(-n2c(C)nc3ccccc3c2=O)cc(C)c1O	230 mg/kg
CCOC(=O)CI	50 mg/kg
